According to PubChem BioAssay (NCI):
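Assay format: 96-well plates, 48-hour exposure. GI50: concentration for 50% inhibition of growth. The concentration for full growth arrest is given as TGI.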

Tests used:
Experiment in all cases: inhibition of tumour cell growth, NCI panel, 48 h
A549 NSCLC = test system: A549 NSCLC
HCT-116 colon = test system: HCT-116 colon
HOP-62 NSCLC = test system: HOP-62 NSCLC
HOP-92 NSCLC = test system: HOP-92 NSCLC
HS 578T breast = test system: HS 578T breast
K-562 leukemia = test system: K-562 leukemia
M14 melanoma = test system: M14 melanoma
OVCAR-8 ovarian = test system: OVCAR-8 ovarian
SF-268 CNS = test system: SF-268 CNS
SN12C renal = test system: SN12C renal

Structure (SMILES) | TGI (A549 NSCLC) [µM] | TGI (HCT-116 colon) [µM] | TGI (HOP-62 NSCLC) [µM] | TGI (HOP-92 NSCLC) [µM] | TGI (HS 578T breast) [µM] | TGI (K-562 leukemia) [µM] | TGI (M14 melanoma) [µM] | TGI (OVCAR-8 ovarian) [µM] | TGI (SF-268 CNS) [µM] | TGI (SN12C renal) [µM] | GI50 (A549 NSCLC) [µM] | GI50 (HCT-116 colon) [µM] | GI50 (HOP-62 NSCLC) [µM] | GI50 (HOP-92 NSCLC) [µM] | GI50 (HS 578T breast) [µM] | GI50 (K-562 leukemia) [µM] | GI50 (M14 melanoma) [µM] | GI50 (OVCAR-8 ovarian) [µM] | GI50 (SF-268 CNS) [µM] | GI50 (SN12C renal) [µM]
O=c1[nH]c(=S)[nH]c2c1CN(CCCN1CCOCC1)CN2 | > 100 | > 100 | > 100 | > 100 | > 100 | > 100 | 59.6 | 96.4 | 59.1 | > 100 |  |  |  |  |  |  |  |  |  | 
O=C(c1ccccc1)C(CN1CCCCC1)c1ccccc1 (stereo not drawn) | 43.8 | 2.46 | 5.9 | 3.88 | 33.2 | 14.2 | 2.63 | 4.36 | 16.1 | 3.8 | 16.1 | 1.13 | 2.03 | 1.16 | 4.49 | 0.712 | 0.865 | 1.7 | 3.98 | 1.79
Nc1nnnn1CCO | > 100 | > 100 | > 100 | > 100 | > 100 | > 100 | > 100 | > 100 | > 100 | > 100 |  |  |  |  |  |  |  |  |  | 
[N-]=[N+]=NCCCCCC(=O)OC(C(=O)c1ccccc1)c1cccc(OCC(=O)NCCOCCOCCNC(=O)CCCC[C@@H]2SC[C@@H]3NC(=O)N[C@@H]32)c1 (stereo partly drawn) | > 100 | > 100 | > 100 | > 100 | > 100 | > 100 | > 100 | > 100 | > 100 | > 100 | > 100 | 67.2 | > 100 | 34.9 | > 100 | 62.9 | > 100 | > 100 | > 100 | > 100
c1ccc(CN2COc3c(ccc4c3OCN(Cc3ccccc3)C4)C2)cc1 | > 100 | > 100 | > 100 | > 100 | > 100 | > 100 | > 100 | > 100 | > 35.6 | > 100 | 0.477 | 0.535 | 0.545 | 1.18 | 1.91 | 0.445 | 0.49 | 0.391 | 0.605 | 0.559
CCN(CC)c1ccc(C(O)C2=CC(=O)c3ccccc3C2=O)cc1 (stereo not drawn) | 30.9 | 3.14 | 4.33 | 0.942 | 5.53 |  | 4.57 |  | > 100 | 4.83 | 4.4 | 1.76 | 2.03 | 0.21 | 1.32 | 0.416 | 2.1 |  | > 100 | 1.38
CC1CCCC(C(O)CC2CC(=O)NC(=O)C2)C1O (stereo not drawn) | > 100 | > 100 | > 100 | > 100 | > 100 | > 100 | > 100 | > 100 | > 100 | > 100 |  |  |  |  |  |  |  |  |  | 
S=C(Nc1ccc(-c2nc3ccccc3[nH]2)cc1)Nc1ccc(-c2nc3ccccc3[nH]2)cc1 | > 100 | > 100 | > 100 | > 100 | > 100 | > 100 | > 100 | > 100 | > 100 | > 100 | > 100 | 55.4 | > 100 | > 100 | > 100 | 83.4 | 60.3 | 59.6 | > 100 | 47.7
N=c1ccn(O)cc1/C=C1/C(=O)Nc2ccccc21 | > 100 | > 100 | > 100 | > 100 | > 100 | > 100 | > 100 | > 100 | > 100 | > 100 | > 100 | > 100 | > 100 | > 100 | > 100 | > 100 | > 100 | > 100 | > 100 | > 100
CS(=O)(=O)CCc1cccc(C(=O)c2cnn(-c3ccc(F)cc3)c2N)c1 | > 25 | > 25 | > 25 | > 25 | > 25 | > 25 | > 25 | > 25 | > 25 | > 25 | > 25 | > 25 | > 25 | > 25 | > 25 | > 25 | > 25 | > 25 | > 25 | > 25
CC(=O)c1c(C)[nH]c(-c2nc3ccc(N4CCN(C)CC4)cc3[nH]2)c1-c1ccc(N(C)C)cc1 | > 48.4 | 13.6 | 28.4 | 2.53 | 7.23 | 8.79 | 13.4 | > 84.1 | 26.8 | 43.1 | 1.04 | 0.803 | 0.56 | 0.147 | 0.396 | 0.461 | 0.537 | 2.33 | 4.1 | 1.76
CNC(=O)c1ccccc1Nc1nc(Nc2cc(OC)c(OC)c(OC)c2)ncc1Br | 17.5 |  | 2.31 | 0.0874 | 0.569 | > 38.9 | 1.38 | 12.2 | 2.18 | 3.3 | 0.0354 |  | 0.0349 | < 0.0152 | 0.0259 | 0.0874 | 0.0191 | 0.0483 | 0.0384 | 0.0366
CCOC(=O)c1cc2c(cc1Cl)SC(N(c1ccc(OC)cc1)S(=O)(=O)c1ccc(Cl)cc1)=NS2(=O)=O | > 100 | > 100 | > 100 | 38.6 | > 100 | > 100 | > 100 |  | 67.6 | > 100 | 33.4 | 35.8 | > 100 | 19.1 | 46.7 | 38.6 | 38.7 |  | 23.5 | 31.8
